Measured values from PubChem BioAssay AID2060610 (Molecular Pharmacology Branch, DTP, NCI, 2025).
pIC50: −log10 of the molar value.

System: 616215-338-R-J1-PDC complex spheroids, viability % test/control
Experiment: Anticancer human tumor 616215-338-R-J1-PDC patient-derived colon adenocarcinoma cell line growth inhibition [CLK]
Details: for pIC50: curve of first compound; for viability, T/C: stronger effect = lower value
Source text: A high-throughput screen of multi-cell type tumor spheroids was designed to identify active combinations of […] and targeted small molecules. Complex spheroids include a stromal component modeled by human endothelial cells (HUVEC) and fibroblasts modeled by human mesenchymal stem cells (MSCs). The concentration ranges selected for each drug and investigational agent were based upon clinically achievable concentrations if the clinical Cmax of the agent was known.
Compounds. The drugs and investigational agents: cirtuvivint (SM08502; NSC835563), CC-671 (NSC850746), vemurafenib (NSC761431), tapotoclax (NSC804041), sotorasib (NSC818433), adagrasib (NSC831453), MRTX-1133 (NSC836407), BAY2416964 (NSC825713), copanlisib (NSC816437), inavolisib (NSC800729), abemaciclib (NSC768073), osimertinib (NSC779217), entinostat (NSC756642), eltanexor (KPT-8602, NSC794443), venetoclax (NSC766270), ceralasertib (NSC777638), bortezomib (NSC756655), olaparib (NSC753686), talazoparib (NSC767125), alisertib (NSC759677), peposertib (NSC802822), gemcitabine (NSC613327), 5-fluorouracil (NSC19893), SN-38 (NSC673596), oxaliplatin (NSC266046), paclitaxel (NSC125973), and doxorubicin (NSC123127), were obtained from the National Cancer Institute (NCI) Developmental Therapeutics Program Chemical Repository. The FDA-approved anticancer drug set is available from the Developmental Therapeutics Program at https://dtp.cancer.gov/organization/dscb/obtaining/available plates.htm. […] The stock solutions were prepared in dimethyl sulfoxide (DMSO, Sigma-Aldrich, St. Louis, MO, cat. D2650), except for the platinum complexes which were prepared in saline (Quality Biological, Gaithersburg, MD, cat. 114-055-101), at 800-fold the tested concentration and stored at -70 degrees C prior to their use. All drugs and investigational agents were tested over a range starting from a high concentration at or near the clinical Cmax and decreasing in half-log increments. If the clinical Cmax for an agent had not been determined, the highest concentration tested was 10 microM.
Cell Culture. All cells were maintained in an incubator at 37 degrees C and 5% CO2 with 95% humidity. The PDC lines were cultured according to standard operating procedures established by the NCI PDMR. Briefly, all PDCs were thawed and cultured in Matrigel-coated flasks prepared with a working solution of 1X Ham's F-12 nutrient mix, without supplementation (Invitrogen, Waltham, MA, cat. 11765054), 100 U/mL penicillin-streptomycin (Invitrogen, cat. 15140122), and 2.5% Matrigel (Corning Inc., Corning, NY, cat. 354248) for the first three passages. The 947758-054-R-J2-PDC line was cultured in 6B/Colon 1A media, which includes advanced DMEM/F-12 (Thermo Fisher Scientific, cat. 12634028), 10 mM HEPES (Thermo Fisher Scientific, cat. 15630080), 1X GlutaMAX supplement (Thermo Fisher Scientific, cat. 35050061), 0.1 mg/mL primocin (InvivoGen, cat. ant-pm-2), 10% defined fetal bovine serum, heat inactivated (HyClone Laboratories Inc., cat. SH30070.03HI), 1.25 mM N-Acetyl-L-cysteine (Sigma-Aldrich, cat. A9165), 10 mM nicotinamide (Sigma-Aldrich, cat. N0636), 1X B-27 supplement (Thermo Fisher Scientific, cat. 17504044), 1X N-2 supplement (Thermo Fisher Scientific, cat. 17502048), and 10 microM Y-27632 dihydrochloride (Tocris Bioscience, cat. 1254). The 876862-298-R-J1-PDC was cultured in 6E media, which includes all 6B/Colon 1A media components plus 50% L-WRN conditioned media (ATCC, cat. CRL-3276), 50 ng/mL recombinant human EGF recombinant protein (hEGF; Thermo Fisher Scientific, cat. PHG0311), 10 ng/mL recombinant human fibroblast growth factor 10 (hGFG-10; PeproTech, cat. 100-26), 1 ng/mL recombinant human fibroblast growth factor 2 (hFGF-2; PeproTech, cat. 100-18B), and 1 µM prostaglandin E2 (PGE2; Tocris, cat. 2296). The 227483-062-R1-J1-PDC line was cultured in Panc media, containing all 6E components except hFGF-2, with the addition of 500 nM SB-431542 (Selleckchem, cat. S1067) and 10 nM gastrin (Tocris, cat. 3006). […]

[1] = second compound 0.0316 µM, first compound 0.0316 µM
[2] = second compound 0.0316 µM, first compound 0.1 µM
[3] = second compound 0.0316 µM, first compound 0.316 µM
[4] = second compound 0.0316 µM, first compound 1 µM
[5] = second compound 0.0316 µM, first compound 3.16 µM
[6] = second compound 0.0316 µM, first compound 10 µM
[7] = second compound 0.1 µM, first compound 0.0316 µM
[8] = second compound 0.1 µM, first compound 0.1 µM
[9] = second compound 0.1 µM, first compound 0.316 µM
[10] = second compound 0.1 µM, first compound 1 µM
[11] = second compound 0.1 µM, first compound 3.16 µM
[12] = second compound 0.1 µM, first compound 10 µM
[13] = second compound 0.316 µM, first compound 0.0316 µM
[14] = second compound 0.316 µM, first compound 0.1 µM
[15] = second compound 0.316 µM, first compound 0.316 µM
[16] = second compound 0.316 µM, first compound 1 µM
[17] = second compound 0.316 µM, first compound 3.16 µM
[18] = second compound 0.316 µM, first compound 10 µM
[19] = second compound 1 µM, first compound 0.0316 µM
[20] = second compound 1 µM, first compound 0.1 µM
[21] = second compound 1 µM, first compound 0.316 µM
[22] = second compound 1 µM, first compound 1 µM
[23] = second compound 1 µM, first compound 3.16 µM
[24] = second compound 1 µM, first compound 10 µM
[25] = second compound 3.16 µM, first compound 0.0316 µM
[26] = second compound 3.16 µM, first compound 0.1 µM
[27] = second compound 3.16 µM, first compound 0.316 µM
[28] = second compound 3.16 µM, first compound 1 µM
[29] = second compound 3.16 µM, first compound 3.16 µM
[30] = second compound 3.16 µM, first compound 10 µM
[31] = second compound 10 µM, first compound 0.0316 µM
[32] = second compound 10 µM, first compound 0.1 µM
[33] = second compound 10 µM, first compound 0.316 µM
[34] = second compound 10 µM, first compound 1 µM
[35] = second compound 10 µM, first compound 3.16 µM
[36] = second compound 10 µM, first compound 10 µM
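Further: spheroids exposed to agents for 7 days.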
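Wherever viability, T/C is given: 100% = DMSO vehicle wells.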

C#Cc1c(F)ccc2cc(O)cc(-c3ncc4c(N5CC6CCC(C5)N6)nc(OCC56CCCN5CC(F)C6)nc4c3F)c12 (centres undefined) + CNC(=O)c1ccc(Nc2nc(OC3CCCC3)c3c(-c4ccc5nc(C)oc5c4)c[nH]c3n2)c(OC)c1
pIC50 (second compound 0.0316 µM): < 5.00 | pIC50 (second compound 0.1 µM): 6.63 | pIC50 (second compound 0.316 µM): > 7.50 | pIC50 (second compound 1 µM): > 7.50 | pIC50 (second compound 3.16 µM): > 7.50 | pIC50 (second compound 10 µM): > 7.50 | viability, T/C [1]: 88.8% | viability, T/C [2]: 90.4% | viability, T/C [3]: 94.1% | viability, T/C [4]: 91.1% | viability, T/C [5]: 112% | viability, T/C [6]: 110% | viability, T/C [7]: 59.7% | viability, T/C [8]: 56.2% | viability, T/C [9]: 45.5% | viability, T/C [10]: 43% | viability, T/C [11]: 32.3% | viability, T/C [12]: 24.4% | viability, T/C [13]: 47.2% | viability, T/C [14]: 43.8% | viability, T/C [15]: 43.2% | viability, T/C [16]: 42.3% | viability, T/C [17]: 33% | viability, T/C [18]: 18.6% | viability, T/C [19]: 44.1% | viability, T/C [20]: 44.2% | viability, T/C [21]: 38.8% | viability, T/C [22]: 30.7% | viability, T/C [23]: 30.4% | viability, T/C [24]: 17.8% | viability, T/C [25]: 38.7% | viability, T/C [26]: 41.3% | viability, T/C [27]: 37.3% | viability, T/C [28]: 33.1% | viability, T/C [29]: 24.2% | viability, T/C [30]: 18.2% | viability, T/C [31]: 48.6% | viability, T/C [32]: 42.6% | viability, T/C [33]: 33.2% | viability, T/C [34]: 34.7% | viability, T/C [35]: 24.8% | viability, T/C [36]: 18.9%

CC(Nc1ccc2c(c1)OCCn1cc(N3C(=O)OCC3C(F)F)nc1-2)C(N)=O (centres undefined) + CN1CCN(c2cc(C(=O)Nc3cc4cc(-c5cnn(C)c5)ccc4cn3)ccn2)CC1
pIC50 (second compound 0.0316 µM): < 5.00 | pIC50 (second compound 0.1 µM): 5.70 | pIC50 (second compound 0.316 µM): > 7.50 | pIC50 (second compound 1 µM): > 7.50 | pIC50 (second compound 3.16 µM): > 7.50 | pIC50 (second compound 10 µM): > 7.50 | viability, T/C [1]: 94.6% | viability, T/C [2]: 108% | viability, T/C [3]: 101% | viability, T/C [4]: 92% | viability, T/C [5]: 78.3% | viability, T/C [6]: 52.4% | viability, T/C [7]: 105% | viability, T/C [8]: 97.9% | viability, T/C [9]: 75% | viability, T/C [10]: 59.2% | viability, T/C [11]: 44.7% | viability, T/C [12]: 38% | viability, T/C [13]: 26.2% | viability, T/C [14]: 22% | viability, T/C [15]: 17.6% | viability, T/C [16]: 13.8% | viability, T/C [17]: 12.9% | viability, T/C [18]: 10.4% | viability, T/C [19]: 0.14% | viability, T/C [20]: 0.18% | viability, T/C [21]: 0.22% | viability, T/C [22]: 0.1% | viability, T/C [23]: 0.88% | viability, T/C [24]: 0.09% | viability, T/C [25]: 0.11% | viability, T/C [26]: 0.15% | viability, T/C [27]: 1.65% | viability, T/C [28]: 1.21% | viability, T/C [29]: 1.32% | viability, T/C [30]: 1.75% | viability, T/C [31]: 0.13% | viability, T/C [32]: 0.18% | viability, T/C [33]: 1.39% | viability, T/C [34]: 0.23% | viability, T/C [35]: 0.22% | viability, T/C [36]: 0.23%
